Key:
C57Bl/6J mice = assay: Oral glucose tolerance test (OGTT) in C57Bl/6J mice; format: in vivo; conditions: single oral dose 1 h before 2.0 g/kg oral glucose, sitagliptin 10 mg/kg, vs vehicle
Experimental: FIG. 1 is a graph of blood glucose over time in C57BI/6J mice according to the oral glucose tolerance test (Biological Assay Procedure E) before and after oral administration of vehicle (control), compound A (Example 64@ 30 mg/kg), or sitagliptin (10 mg/kg @ 10 mg/kg).
FIG. 2 is a graph of blood glucose over time in C57BI/6J mice according to the oral glucose tolerance test (Biological Assay Procedure E) before and after oral administration of vehicle (control), compound […] (Example 42 @ 10 mg/kg), or sitagliptin (10 mg/kg @ 10 mg/kg).
E: Oral Glucose Tolerance Test (OGTT) in C57Bl/6J Mice:
After the quarantine period, 6 hr fasted animals were randomized and divided into various groups depending on their blood glucose levels. Test compounds or standard drug (sitagliptin) was prepared as a suspension in a vehicle consisting of 0.5% methylcellulose and Tween 80 as a suspending agent. The standard drug, Compound A (example-64), Compound B (example-42) or vehicle were administered by oral gavage in a volume of 10 mL/kg. 1 h after the test compounds, standard drug and vehicle administration, blood was sampled from the tail vein of mice at time 0 min (baseline) and at 30, 60, 90 and 120 min after an oral glucose load of 2.0 g/kg of body weight. Food, but not water, was withheld from the cages during the course of experiment. The area under curve (AUC) of experimental animals was compared with that of vehicle-treated control group. The results are shown in FIGS. 1 and 2 and are discussed below.

human GPR119 = target: T1, human GPR119 (Homo sapiens, UniProt Q8TDV5); assay: In vitro cyclic AMP assay (Cisbio HTRF) in HEK293 cells transfected with human GPR119; format: cell-based; conditions: cAMP; for activation at 10 µM: 1 h, % Induction @ 10 μM; for EC50: Emax varies between 65 to 80%
T1 construct: expressed in transfected cells; host or cells: HEK293 (transient transfection, Lipofectamine 2000)
T1 sequence (Q8TDV5 1-335): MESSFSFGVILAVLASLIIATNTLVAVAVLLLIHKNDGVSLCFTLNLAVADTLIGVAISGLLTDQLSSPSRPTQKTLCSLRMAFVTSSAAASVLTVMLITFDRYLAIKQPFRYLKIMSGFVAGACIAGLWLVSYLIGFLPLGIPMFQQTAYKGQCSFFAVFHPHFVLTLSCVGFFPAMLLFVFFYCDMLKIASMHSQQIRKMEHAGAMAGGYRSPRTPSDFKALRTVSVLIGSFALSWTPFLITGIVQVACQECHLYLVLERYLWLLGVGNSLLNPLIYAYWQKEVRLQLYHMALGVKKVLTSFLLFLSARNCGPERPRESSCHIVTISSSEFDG
In short: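 HEK293 cells transiently transfected with human GPR119 plasmid (or empty vector), replated 24 h later and exposed to compounds for 60 min at room temperature. cAMP measured by HTRF (cAMP-d2/cryptate, 665/620 nm ratio) after 1 h lysis; EC50 from concentration-response curves, also % induction at 10 μM.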

Mouse GPR119 = target: T2, Mouse GPR119 (Mus musculus, UniProt Q7TQP3); assay: In vitro mouse GPR 119 cyclic AMP assay in stably transfected HEK293 cells; format: cell-based; conditions: cAMP, HEK293 cells stably transfected with mouse GPR119
T2 construct: expressed in transfected cells
T2 sequence (Q7TQP3 1-335): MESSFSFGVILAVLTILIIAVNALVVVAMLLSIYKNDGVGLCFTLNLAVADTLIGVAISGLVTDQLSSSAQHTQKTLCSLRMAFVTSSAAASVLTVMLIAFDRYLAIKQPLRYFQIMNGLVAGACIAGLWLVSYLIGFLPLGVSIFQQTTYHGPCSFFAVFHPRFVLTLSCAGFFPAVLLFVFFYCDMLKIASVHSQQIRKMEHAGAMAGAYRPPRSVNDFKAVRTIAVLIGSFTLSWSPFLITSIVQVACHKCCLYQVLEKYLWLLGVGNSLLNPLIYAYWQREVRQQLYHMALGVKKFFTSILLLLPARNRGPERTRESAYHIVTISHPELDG
Experimental: B. In Vitro Mouse GPR 119 Cyclic AMP Assay:
(§1) cAMP measurements were done using a Cisbio dynamic 2 HTRF kit (Cisbio, Bedford, Mass.) according to the manufacturer's protocol. HEK293 Cells were stably transfected with Mouse GPR119 expression plasmid DNA using Lipofectamine 2000 (Invitrogen) and maintained in culture. Cells were harvested, counted and plated at 1000 cells/5 ul in a black 384 welled small volume plate. Cells were treated with desired concentrations of compounds and incubated for 60 min at room temperature. Lysis buffer containing cAMP-d2 and cryptate conjugate were added and incubated for 1 h. HRTF ratio was measured on a microplate reader (BMG Labtech., Germany) at an excitation wavelength of 337 nm and emission wavelengths of 665 and 615 nm with an integration time of 400 μsec. Data were analyzed using Graphpad Prism (Graphpad software; San Diego Calif.) for EC50 determination.

HIT-T15 cells = assay: In vitro HIT-T15 cyclic AMP assay; format: cell-based; conditions: cAMP
Experimental: C. In Vitro HIT-T15 Cyclic AMP Assay:
as §1, with “Briefly, HIT-T15 cells” for “HEK293 Cells were stably transfected with Mouse GPR119 expression plasmid DNA using Lipofectamine 2000 (Invitrogen) and maintained in culture. Cells”, “4000” for “1000”, “ul PBS-BSA solution” for “ul”

SMILES	lowered AUCglucose (C57Bl/6J mice; FIG. 2 study, Compound B 10 mg/kg) [%]	melting point [°C]	activation at 10 µM (human GPR119; Table I) [%]	EC50 (human GPR119; Table I) [nM]	EC50 (Mouse GPR119) [nM]	EC50 (HIT-T15 cells) [nM]	lowered AUCglucose (C57Bl/6J mice; FIG. 1 study, Compound A 30 mg/kg) [%]	activation at 10 µM (human GPR119; Table II) [%]	EC50 (human GPR119; Table II) [nM]
CNC(=O)c1ccc(-c2ccc3oc(C4CCN(C(=O)OC(C)C)CC4)nc3c2)cc1F [EXAMPLE-42, Isopropyl 4-{5-[3-fluoro-4-(methylcarbamoyl)phenyl]benzo[d]oxazol-2-yl}piperidine-1-carboxylate]	22	116 to 120	78.4	25 to 50	–	–	–	–	–
CC(C)(C)OC(=O)N1CCC(c2nc3cc(-c4ccc(-n5cnnn5)cc4F)ccc3o2)CC1 [EXAMPLE-12, Tert-butyl 4-{5-[2-fluoro-4-(1H-tetrazol-1-yl)phenyl]benzo[d]oxazol-2-yl}piperidine-1-carboxylate]	–	–	83	≤ 25	< 25	< 25	–	–	–
CC(C)OC(=O)N1CCC(c2ccc3oc(-c4ccc(S(C)(=O)=O)cc4F)nc3c2)CC1 [EXAMPLE-64, Isopropyl 4-{2-[2-fluoro-4-(methylsulfonyl)phenyl]benzo[d]oxazol-5-yl}piperidine-1-carboxylate]	–	–	–	–	–	–	24	75	≤ 25

Reference: patent US9181214B2 (RHIZEN PHARMACEUTICALS SA, priority 2011, dated 2015)
